Measurements taken from patent US20240316012A1, “METHODS FOR TREATING LYMPHOMA” (Northwestern University, priority 2023, published 2024).

Test system: H3K27 acetylation
Assay: Flow cytometry for H3K27ac after in vitro culture with inhibitors
Format: cell-based, mouse
Text: Data are normalized to viable cell number and z-scores per metabolite. […] P=two-sided Student's t-test. The data are presented as the mean±SEM and individual data points for each animal. Cross indicates death of the animal. […] P=two-sided Student's t-test. Shown are the mean±SD and individual data points. […] Data are presented as mean±SD and individual data points. […] P=paired two-sided Student's t-test. Data are presented as the mean±SD. […] Data was normalized as in (a). P=two-sided Student's t-test. The data are presented as the mean±SEM. […] Experiment as in (h) (n=3 mice genotype). Data was normalized as in (a). P=two-sided Student's t-test. Data are presented as the mean±SD. FIGS. 3-D, Representative data from two independent experiments with n=3 biological replicates per group. FIG. 3E, Representative data from two independent experiments with two biological replicates per group. FIG. 3F, Representative data from two independent experiments. FIG. 3G, Representative data from two independent experiments with three biological replicates per group. FIG. 3H, Representative data from one experiment with four biological replicates per group. FIG. 3I, Representative data from one experiment with three biological replicates per group FIGS. 4A-4H show ACLY is a critical effector molecule downstream of PD-1. […] ITK-SYK^+ cells were FACS-sorted from ITK-[…]2 mice on d5 after TAM and 12 h anti-PD-L1 or isotype control antibody treatment (i.p., 200 μg). P=paired two-sided Student's t-test. Data are presented as the mean±SD. […] Spleen-derived single-cell suspensions were FACS-sorted from ITK-[…]2 mice on d5 after TAM and cultured in vitro overnight with anti-PD-L1 or isotype control antibodies and the PI3K inhibitors (“iPI3K”) Wortmannin (20 nM), LY294002 (20 μM), or DMSO. […] Spleen-derived lymphocytes, FACS-sorted from ITK-[…]2 and ITK-[…]2; Pdcd1^-/- mice on d5 after TAM were incubated for three days in vitro. P=two-sided Student's t-test. Data are presented as the mean±SD. […] Protein lysates were generated after 48 h in vitro culture. RNP, ribonucleoprotein. […] P=two-sided Logrank-test. […] ITK-SYK^+ cells were FACS-sorted from ITK-[…]2 (“Pdcd1^+/+”) and ITK-[…]2; Pdcd1^-/- (“Pdcd1^-/-”) mice on d5 after TAM, fixed, and processed for anti-H3K27ac ChIP-seq analysis. ChIP-seq, chromatin immunoprecipitation sequencing; TSS, transcription start site. FIG. 4B, Representative data from three independent experiments with three biological replicates per group. FIG. 4C, Representative data from two independent experiments with two biological replicates. FIGS. 4D and 4E, Representative data from 3 independent experiments. FIGS. 4F and 4G, Data from one experiment with n=5 mice per group. […] (8752, CST), and assessed by flow cytometry. […]

COc1ccc(-c2ccccc2)cc1NS(=O)(=O)c1cc(Cl)cc(Cl)c1O [BMS-303141]
histone acetylation (H3K27ac) in ITK-SYK+ cells (BMS-303141 15 μM vs DMSO vehicle control, 3 hours, 4 h): reduced histone acetylation
dependency of H3K27ac on ACLY function in cells with pharmacologically inactivated PD-1 pathway (anti-PD-L1 vs isotype control pretreated mice, BMS-303141 15 μM, p=0.0131): significantly higher

O=CC[C@@H](O)[C@H](O)[C@H](O)CO [2-DG, 2-deoxy-D-glucose]
H3K27 acetylation in Pdcd1 deficient lymphoma cells (2-DG 1 mM, 4 h in vitro vs DMSO, p=0.0003): reduction in H3K27 acetylation
